{"source": "paper PMC13022995", "about": "(Environmental science & technology, 2025)", "key": {"[1]": {"system": "HepG2 cells", "assay_type": "cell-based, human"}, "[2]": {"system": "p53RE-bla HCT116 cells", "assay_type": "cell-based, human"}, "[3]": {"system": "hTERT-MSCs and aortic ECs (TeloHAECs) co-culture", "assay_type": "cell-based, human"}, "[4]": {"system": "liver, renal, bladder, and lung cells"}}, "note": "Read-outs that look alike come from different tables or passages of the source.", "data": [{"compound": "O=[As]O[As]=O", "note": "(stereo not drawn) [arsenic oxide]", "values": [{"measurement": "ROS induction", "setting": "[1]; HepG2 cells", "result": "not detected"}]}, {"compound": "O.O.O.O.O=S(=O)([O-])[O-].[Be+2]", "note": "[beryllium sulfate tetrahydrate]", "values": [{"measurement": "p53 activation", "setting": "[2]", "result": "activated p53"}, {"measurement": "ROS induction", "setting": "[1]; HepG2 cells", "result": "not detected"}]}, {"compound": "CC(=O)[O-].CC(=O)[O-].O.O.[Cd+2]", "note": "[cadmium acetate dihydrate, Cadmium acetate dihydrate]", "values": [{"measurement": "angiogenesis induction", "setting": "[3]", "result": "independently induce angiogenesis"}, {"measurement": "cytotoxicity of single compound", "setting": "[4]", "result": "cytotoxic by themselves"}]}, {"compound": "[Cl][Cd][Cl]", "note": "[cadmium chloride]", "values": [{"measurement": "angiogenesis induction", "setting": "[3]", "result": "independently induce angiogenesis"}, {"measurement": "cytotoxicity of single compound", "setting": "[4]", "result": "cytotoxic by themselves"}]}, {"compound": "O.O.O.O.O=[N+]([O-])[O-].O=[N+]([O-])[O-].[Cd+2]", "note": "[cadmium nitrate tetrahydrate, Cadmium nitrate tetrahydrate]", "values": [{"measurement": "angiogenesis induction", "setting": "[3]", "result": "independently induce angiogenesis"}, {"measurement": "oxidative stress-inducing capability", "setting": "[1]; among components of Mixture 1, Supporting Table 3", "result": "exhibited oxidative stress-inducing capability"}, {"measurement": "cytotoxicity of single compound", "setting": "[4]", "result": "cytotoxic by themselves"}]}, {"compound": "CC(=O)[O-].CC(=O)[O-].O.O.O.[Pb+2]", "note": "[lead(II) acetate trihydrate]", "values": [{"measurement": "cytotoxicity of single compound", "setting": "[4]", "result": "cytotoxic by themselves"}]}, {"compound": "[Cl][Pb][Cl]", "note": "[lead(II) chloride, Lead(II) chloride]", "values": [{"measurement": "angiogenesis induction", "setting": "[3]", "result": "induced angiogenesis"}, {"measurement": "cytotoxicity of single compound", "setting": "[4]", "result": "cytotoxic by themselves"}]}, {"compound": "O.O.O.O.O.O.O=S(=O)([O-])[O-].[Ni+2]", "note": "[nickel sulfate, nickel(II) sulfate hexahydrate]", "values": [{"measurement": "ROS induction", "setting": "[1]", "result": "not detected"}]}, {"compound": "O=[N+]([O-])c1ccc([As](=O)(O)O)cc1", "note": "[nitarsone, Nitarsone]", "values": [{"measurement": "angiogenesis induction", "setting": "[3]", "result": "induced angiogenesis"}]}]}
